Reference: EP0005015B1, “Use of a xanthine derivate in the manufacture of a medicament” (BEECHAM - WUELFING GmbH & Co. KG, priority 1978, dated 1979)
“And” between values parts separate entries of the source, which are not always exact repeats. Equal entries are not always repeated.

Tests used:
[1] = Solubility in aqueous media; assay type: physicochemical
[2] = Blood pressure changes during the contractility experiment; assay type: in vivo, Cat
[3] = tested on: ischaemic skeletal muscle; assay: pO2 measurement in ischaemic skeletal muscle (m. gastrocnemius, femoral artery ligated), Pt-needle electrodes; assay type: in vivo, Cat
Protocol: (§1) Cats of either sex were anaesthetized with urethane/chloralose (120/60 mg/kg i.p. In the course of the experiments, pentobarbital was injected intravenously (V. antebrachii ceph.) via a plastic tube. The intraduodenal (i.d.) application of compound weas conducted by means of a plastic catheter, which was inserted into the duodenum.
The reference electrode, and Ag/AgCl system was sputtered on the glass mantle of the cathode, or it was a separate electrode. The cathode was coated with a polystyrol and a collodium membrane. A constant voltage supply provided a polarizing voltage between 600 and 800 mV. The reducing current was measured by a nano-ampere amplifying meter. The- cathode was inserted in the tissue by means of a motor-driven micromanipulator.
A p02― electrode was inserted in the muscle tissue (m. gastrocnemius) of both hindlegs of an anaesthetized cat. After recording the p02 of the normal perfused muscle, the blood flow to one measuring site was restricted by ligating the femoral artery. […] After having reached a constant level of p02, the vehicle was given, followed by the test substance.
The mean value and the standard deviation were calculated, in order to check the significance of the effect.

skeletal muscle = assay: pO2 measurement in the control (non-ligated) hind limb muscle; assay type: in vivo, Cat; details: individual cats
Protocol: A p02― electrode was inserted in the muscle tissue (m. gastrocnemius) of both hindlegs of an anaesthetized cat. After recording the p02 of the normal perfused muscle, the blood flow to one measuring site was restricted by ligating the femoral artery. […] The values were constant after 30 to 60 min. After having reached a constant level of p02, the vehicle was given, followed by the test substance.

[4] = tested on: ischaemic skeletal muscle; assay: Skeletal muscle contractility with restricted femoral blood flow; assay type: in vivo, Cat
Protocol: as §1
Cats of either sex were anaesthetized as for p02 measurement. After dissection of the skin of the calf muscles, the sciatic nerve was cut about 3 cm proximal to the knee. The tendon of the calf muscles was cut and connected with an isometric force transducer (SWEMA, SG 3). In order to maintain constant differences and a resting tension of 100 p, the hind limb was fixed at the tibia by means of a clamp. Direct stimulation of the muscles consisted of square wave pulses of a 4 msec duration at a frequency of 2 Hz and at a voltage of 50 V. In order to keep the muscles wet and at a normal temperature, the muscles were continuously superfused by means of a NaCI-solution (0.9%, 38°C). Femoral blood flow was restricted by a graded occlusion of the artery leading to a reduction of contractility by ca. 30%. After having reached a constant level of the contraction force, the vehicle (NaCI and Methocel®, respectively) was injected, followed by the test substance.

[5] = Acute oral toxicity (LD50); details: mouse, in vivo; mice, per oral

SMILES: CCCCn1c(=O)c2c(ncn2CC(C)=O)n(CCCC)c1=O [Compound A, 1,3-di-n-butyl-7-(2-oxopropyl)xanthine]
- solubility in aqueous media [1]: only sparingly soluble
- t (min), time interval to reach initial values, initial phase BP decrease ([2]; 50 µg/kg i.v.): 2 min
- t (min), time interval to reach initial values, second phase BP increase ([2]; 50 µg/kg i.v.): 33 min
- t (min), time interval to reach initial values, initial phase BP decrease ([2]; 125 µg/kg i.v.): 3 min
- t (min), time interval to reach initial values, second phase BP increase ([2]; 125 µg/kg i.v.): 32 min
- Δ second phase BP increase X̄ ± S ([2]; 125 µg/kg i.v.): +10.8 ± 8.3 percentage of initial values
- t (min), time interval to reach initial values, initial phase BP decrease ([2]; 313 µg/kg i.v., n = 1): 2 min
- t (min), time interval to reach initial values, second phase BP increase ([2]; 313 µg/kg i.v., n = 1): 6 min
- Δ initial phase BP decrease ([2]; 313 µg/kg i.v., n = 1): −25.0 n = 1 percentage of initial values
- Δ second phase BP increase ([2]; 313 µg/kg i.v., n = 1): +15.0 n = 1 percentage of initial values
- effect of Compound A 125 μg/kg i.v. ΔpO2 (Torr) ([3]; hind limb art. lig., 125 μg/kg i.v., individual cats): 5.6 (p≤0.01) Torr and 6.2 (p≤0.01) Torr and 7.3 (p≤0.01) Torr and 5.2 (p≤0.01) Torr and 27.1 (p≤0.01) Torr and 11.2 (p≤0.01) Torr
- pO2 (mmHg) (increase) ([3]; i.d., 50 µg/kg): 4 (50 µg) mmHg
- pO2 (mmHg) (increase) ([3]; i.v., 125 µg/kg): 10 (125 µg) mmHg
- effect of Compound A 125 μg/kg i.v. ΔpO2 (Torr) (skeletal muscle; 125 μg/kg i.v.): 19.3 (p≤0.01) Torr and 3.4 (p≤0.01) Torr and 13.2 (p≤0.01) Torr and 3.8 (p≤0.01) Torr and 3.5 (p≤0.01) Torr
- t (min), time interval to reach initial values, muscle contract. ([4]; 50 µg/kg i.v.): >60 min
- t (min), time interval to reach initial values, muscle contract. ([4]; 125 µg/kg i.v.): >60 min
- t (min), time interval to reach initial values, muscle contract. ([4]; 313 µg/kg i.v., n = 1): >60 min
- Δ muscle contract. ([4]; 313 µg/kg i.v., n = 1): +25.0 n = 1 percentage of initial values
- contractility (% initial value) ([4]; i.d., 125 µg/kg): 32 (125 µg) % initial value
- contractility (% initial value) ([4]; i.v., 50 µg/kg): 36 (50 µg) % initial value
- LD50 [5]: > 1000 mg/kg

SMILES: CC(=O)CCCCn1c(=O)c2c(ncn2C)n(C)c1=O [Compound B, pentoxyphylline]
- effect of Compound B 5 mg/kg i.v. ΔpO2 (Torr) ([3]; hind limb art. lig., 5 mg/kg i.v., individual cats): 1.3 (p≤0.01) Torr and 1.6 (p≤0.01) Torr and 4.9 (p≤0.01) Torr and 7.3 (p≤0.01) Torr
- effect of Compound B in relation to Compound A (%) ([3]; hind limb art. lig., B 5 mg/kg i.v. vs A 125 μg/kg i.v., individual cats): 22.9% and 26.6% and 0% (2×) and 17.9% and 65.6%
- pO2 (mmHg) (increase) ([3]; i.d., 12.5 mg/kg): 3 (12.5 mg) mmHg
- pO2 (mmHg) (increase) ([3]; i.v., 5 mg/kg): 2 (5 mg) mmHg
- effect of Compound B in relation to Compound A (%) (skeletal muscle; B 5 mg/kg i.v. vs A 125 μg/kg i.v.): 74.3% and 0% (3×) and 27%
- contractility (% initial value) ([4]; i.d., 32 mg/kg): 23 (32 mg) % initial value
- contractility (% initial value) ([4]; i.v., 5 mg/kg): 9 (5 mg) % initial value

SMILES: CCCCn1c(=O)c2c(ncn2CCC(C)=O)n(CCCC)c1=O [Compound C, 1,3-di-butyl-7-(3-oxobutyl)xanthine, reference compound]
- pO2 (mmHg) (increase) ([3]; i.d., 32 mg/kg): 6 (32 mg) mmHg
- contractility (% initial value) ([4]; i.d., 12.5 mg/kg): 22 (12.5 mg) % initial value
